“Also recorded” adds a separate entry of the source. Where two headings read alike, the source gives them in different places.
Columns and labels:
[1] = Moisture sorption of potassium clavulanate powder at different relative humidity; format: physicochemical; settings: for Moisture Content (%) (g H2O/g dry solid) / Moisture Content (%) (g H2O/g wet solid): 96 hr
Procedure: Potassium clavulanate in its solid form is both hygroscopic and unstable in the presence of water vapor. A stability study of clavulanate was conducted with monitoring by chromatographic methods. The static or equilibrium approach was approached by storing samples in chambers at different relative humidity in an attempt to generate a sorption isotherm. The sorption isotherm represents the quantitative relationship between the equilibrium moisture content and relative humidity (RH) in the atmosphere.

[2] = Stability of clavulanate during moisture removal after wet granulation; format: physicochemical
Procedure: Potassium clavulanate is an exceptionally difficult material to formulate, being extremely moisture and heat sensitive. Degradation readily occurs in the presence of water and aqueous media. Several methods were tested to find a suitable condition for removing moisture after wet granulation that keeps the active ingredient clavulanate intact. The material in sample C was prepared by wet granulation and spheronized. The moisture containing spheronized formulation was transferred to trays and subjected to different storage conditions for the removal of moisture.
Lyophilization retained 97% of the active ingredient after 21 hrs of the freeze drying process.

[3] = Pharmacokinetic study in beagle dogs; format: in vivo; settings: dog, plasma; for Vd: iv, 4.2 mg
Procedure: The amount of clavulanate in the plasma of beagle dogs was measured by LC/MS/MS method. The chromatographic separation of the analytes was performed on a reverse-phase PLRP-S polymeric column. The retention time of potassium clavulanate and tazobactam (reference compound) were 8.51 and 8.54 min, respectively. The overall chromatographic run time was 25 min. The M/S analysis was performed on an Applied Biosystems' API 2000 triple-quardrupole mass spectrometer by multiple reaction monitoring in negative electrospray ionization mode. The mass spectral data were analyzed by Analyst 1.4.1 (Applied Biosystems). The pharmacokinetic analysis was conducted by using PK Solutions 2.0 (Summit Research Services).
Three male Beagle dogs were used throughout the study in a cross-over design with washout period between treatments. […] The animals were fasted overnight before the administration of the test substance and fed 4 hr post-dosing. During all the treatments, blood samples (1.5 ml) were withdrawn from the cephalic vein by venipuncture into heparinized tubes at 0, 5, 15, 30 min, 1, 1.5, 2, 2.5, 3, 4, 6, 9 and 12 hr after dosing. Plasma was obtained via centrifugation at 3,000 rpm for 10 min and analyzed by an LC-MS/MS system.
Three male beagle dogs were used throughout the study in a cross-over design with washout period between treatments. The dogs were given the test substances as aqueous solution via intravenous routes with no shorter than 24 hr washout period between dosing. The animals were fasted overnight before the administration of the test substance and fed 4 hr post-dosing. During all the treatments, blood samples (1.5 ml) were withdrawn from the cephalic vein by venipuncture into heparinized tubes at 0, 5, 15, 30 min, 1, 1.5, 2, 2.5, 3, 4, 6, 9 and 12 hr after dosing. Plasma was obtained via centrifugation at 3,000 rpm for 10 min and analyzed by an LC-MS/MS system.
Four male beagle dogs were used throughout the study in a cross-over design with washout period between treatments. The dogs were given the test substances as ER tablet of Example 3C via oral routes with no shorter than 24 hr washout period between dosing. The animals were fasted overnight before the administration of the test substance and fed 4 hr post-dosing. During all the treatments, blood samples (1.5 ml) were withdrawn from the cephalic vein by venipuncture into heparinized tubes at 1, 2, 3, 4, 5, 6, 7, 8, 9, 10, 11 and 12 hr after dosing. Plasma was obtained via centrifugation at 3,000 rpm for 10 min and analyzed by an LC-MS/MS system.

[4] = administered i.p. at less than 1 μg/kg; cited from earlier work
[5] = rats, i.p. dose of 1 μg/kg; cited from earlier work
[6] = doses ranging from 10 ng to 10 μg/kg (i.p.); cited from earlier work
[7] = system: TH-positive neurons in the substantia nigra pars compacta (SNpc); experiment: Tyrosine hydroxylase immunohistochemistry in MPTP model; format: in vivo, C57BL/6 mice; settings: for TH-positive (TH-IR) neurons within the SNpc: clavulanate treated groups (ip and ga) compared to MPTP-saline group
Procedure: The neuroprotectant effects of clavulanate was tested in an MPTP (1-methyl-4-phenyl-1,2,3,6-tetrahydropyridine) induced Parkinson's disease animal model. Eight week old male C57BL/6 mice were separated into six groups of ten. Three times (one time per day) prior to MPTP treatment, ten animals were treated with clavulanate at a particular dose and route of administration (Groups 2-5) while the remaining animals (groups 1 and 6) were given saline vehicle. (See Table 13.) MPTP was given four times intraperitoneally at a dose of 20 mg/kg (total of 80 mg/kg). Two times (one time per day) post MPTP treatment, animals were given another administration of clavulanate or saline vehicle. Animals were tested for changes in behavior. Animals that survived MPTP treatment were sacrificed 7 days later and their brains examined for histological changes in the substantia nigra pars compacta (SNpc). Ten untreated control animals of the same weight and age as the experimental animals were sacrificed and their hippocampal morphology used as a standard for comparison.
(§1) On completion of the experiment, animals were anesthetized by IP injection of 10 mg/kg pentobarbital sodium, then perfused transcardially with 10 ml of PBS at pH 7.4, follow by 50 ml of 4% paraformaldehyde in PBS over a 5 min period. The brains were removed from the skull and post-fixed by immersion in the same fixative solution for 4 h, then transferred to 30% sucrose in PBS. After equilibration in the sucrose solution, coronal sections were cut using the cryocut at a thickness of 40 μm into storing solution and stored at 4° C. prior to staining.
Immunohistochemistry was carried out on free floating sections. All stains were carried out on a 1 in 5 series of sections. All sections were stained simultaneously using the same solutions of antibodies and ensuring that incubation times and washes were the same for each brain. […]
Neurons were counted using the optical fractionator, an unbiased method for cell counting that is not affected by either the volume of reference or the size of the counted elements (neurons). […]

Kainate animal model = experiment: Kainate animal model: seizure and survival; format: in vivo, Sprague Dawley rats
Procedure: (§2) As a neuroprotectant, clavulanate was tested in the Kainate animal model. Thirty male Sprague Dawley rats weighing 300-350 grams were separated into three groups. One hour prior to kainate treatment, seven animals are treated with clavulanate at an IP dose of 10 μg/kg while the remaining animals were given saline vehicle. Kainate was given IP at a dose of 20 mg/kg to the seven clavulanate treated animals and 13 saline vehicle treated animals. […] Sixty minutes post kainate treatment the animals were given another IP injection (10 μg/kg) of clavulanate or saline vehicle. Animals that survived kainate treatment were sacrificed seven days later and their brains examined for histological changes in the hippocampus. Ten untreated control animals of the same weight and age as the experimental animals were sacrificed and their hippocampal morphology used as a standard for comparison.

[8] = system: cresyl violet positive neurons in the hippocampal CA3 region; experiment: Kainate animal model: cresyl violet staining of hippocampus; format: in vivo, Sprague Dawley rats
Procedure: as §2
as §1, with “with 100” for “with 10”, “by 250” for “by 50”, “staining. All stains are carried out on a 1 in 5 series of sections. […]” for “staining.”
To evaluate the effects of clavulanate against kainate induced neuronal damage, the measurement of neuronal number was performed using an image analyzing system equipped with a computer-based CCD camera (Multiscan, Fullerton, Calif.). The number of cresyl violet positive neurons was counted in a 1 mm diameter of hippocampus in five sections per animal. […] Data are expressed as the mean±SEM. The data were evaluated by a one-way ANOVA SPSS program and the means assessed using Duncan's multiple-range test. […]

[9] = IV aqueous solution, dose 4.2 mg, male beagle dogs
[10] = compared to controls given saline only

O=C(O)[C@H]1/C(=C/CO)O[C@@H]2CC(=O)N21 [potassium clavulanate]
humidity above which deliquescence would eventually occur [1]: above 40 % relative humidity | Moisture Content (%) (g H2O/g dry solid) ([1]; 33% RH): 0.713% | Moisture Content (%) (g H2O/g wet solid) ([1]; 33% RH): 0.708% | Moisture Content (%) (g H2O/g dry solid) ([1]; 35% RH): 0.737% | Moisture Content (%) (g H2O/g wet solid) ([1]; 35% RH): 0.733% | Moisture Content (%) (g H2O/g dry solid) ([1]; 37% RH): 0.848% | Moisture Content (%) (g H2O/g wet solid) ([1]; 37% RH): 0.842% | Moisture Content (%) (g H2O/g dry solid) ([1]; 39% RH): 1.280% | Moisture Content (%) (g H2O/g wet solid) ([1]; 39% RH): 1.264% | Moisture Content (%) (g H2O/g dry solid) ([1]; 41% RH): 1.566% | Moisture Content (%) (g H2O/g wet solid) ([1]; 41% RH): 1.542% | Moisture Content (%) (g H2O/g dry solid) ([1]; 43% RH): 4.140% | Moisture Content (%) (g H2O/g wet solid) ([1]; 43% RH): 3.976% | Moisture Content (%) (g H2O/g dry solid) ([1]; 45% RH): 5.018% | Moisture Content (%) (g H2O/g wet solid) ([1]; 45% RH): 4.778% | Moisture Content (%) (g H2O/g dry solid) ([1]; 47% RH): 14.708% | Moisture Content (%) (g H2O/g wet solid) ([1]; 47% RH): 12.823% | rate of moisture absorption ([1]; dry potassium clavulanate exposed to about 50% relative humidity): approximately 1.44 % per hour | moisture content on a dry weight basis ([1]; exposed to about 35% or less of relative humidity for 96 hr): < 1% | degradation ([2]; storage at 30° C. for 69 hr (storage 1)): up to 45% | degradation ([2]; storage at 45° C. for 75 hr (storage 2)): ≤ 60% | AUC(0-t) [3, 9]: 684 ng·h/mL | MRT inf [3, 9]: 39 min | clearance [3, 9]: 96.7 mL/min | bioavailability ([3]; IV aqueous solution, dose 4.2 mg, male beagle dogs, read-out: F (bioavailability)): 100% | half-life ([3]; IV aqueous solution, dose 4.2 mg, male beagle dogs, read-out: t1/2 (converted)): 31.2 min | Vd ([3]; male, beagle, IV aqueous solution, dose 4.2 mg, male beagle dogs, read-out: Vd): 4.4 L | Vd ([3]; male, beagle, IV aqueous solution, dose 4.2 mg, male beagle dogs, read-out: Vss): 3.8 L | bioavailability ([3]; male, beagle, po, given orally, fasted animals, read-out: average bioavailability): 30 to 41% | half-life ([3]; male, beagle dogs, read-out: apparent terminal half-life (converted)): 30 min

O=C(O)[C@H]1/C(=C/CO)O[C@@H]2CC(=O)N21 [clavulanic acid]
anxiolytic activity [4]: anxiolytic activity | neuroprotectant activity [5]: potent neuroprotectant activity | CNS activity and behavior [6]: alter CNS activity and behavior

O=C(O)[C@H]1/C(=C/CO)O[C@@H]2CC(=O)N21 [clavulanate]
Clavulanate (%) ([2]; Freeze dry: sub-zero, 21 hr): 97% | degradation ([2]; drying in a fluid bed system, 1.5 hr): 13% | TH-positive (TH-IR) neurons within the SNpc [7]: significantly protected; also recorded: preservation | TH-positive (TH-IR) neurons within the SNpc ([7]; listed as Clavulanate): well preserved | protection of TH-positive SNpc neurons, gavage versus ip ([7]; following gavage treatment): greater protection | onset to seizure (Kainate animal model; [10]): longer onset to seizure | seizure activity (Kainate animal model; [10]): mild seizure activity | Survival rate (%) (Kainate animal model; kainate 20 mg/kg IP, clavulanate 10 μg/kg IP 1 hr before and 60 min after kainate): 100% | Seizure rate (Kainate animal model; seizure rating scale (Sperk et al., 1983), 60-120 min after kainate treatment): 0-1 | fatality (Kainate animal model; within 24 hrs of kainate treatment): no fatality | pyramidal neurons positive to cresyl violet ([8]; CA3 stratum pyramidale, 7 days after kainate, compared to the normal group): 88.7% | morphology of neurons in CA3 ([8]; compared to animals treated with kainate-saline): normal morphology | neuroprotective effect on kainate induced hippocampal cell death (CA3 region) ([8]; kainate treated rats): strong neuroprotective effect; also recorded: significant neuroprotective effect
